Usually IC50 stands for the midpoint of a concentration-inhibition curve. Higher therefore signals weaker potency in that assay.

A value given as a limit tells only on which side of the number the result lay.

human PD-L1, sequence (Q9NZQ7 19-239): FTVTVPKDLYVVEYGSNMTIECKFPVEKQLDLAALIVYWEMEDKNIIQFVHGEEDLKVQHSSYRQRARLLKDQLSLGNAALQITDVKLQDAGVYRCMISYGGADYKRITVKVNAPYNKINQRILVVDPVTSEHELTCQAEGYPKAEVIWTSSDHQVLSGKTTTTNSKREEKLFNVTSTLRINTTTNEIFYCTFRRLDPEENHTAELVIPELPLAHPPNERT

The first test addresses human PD-L1 (Homo sapiens (Human), UniProt Q9NZQ7). Briefly: Enzyme-Linked Immunosorbent Assay (ELISA), PD-1/PD-L1 binding. Conditions: PD-1/PD-L1 ELISA, human PD-L1 coated plates, Table 1. The essentials:
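Plates coated with […] human PD-L1 overnight at 4° C, blocked, then 1:5 serial compound dilutions added with human PD-1 […] 0.31 μg/mL for 1 h at 37° C. Bound PD-1 detected with streptavidin-HRP and TMB (20 min, 37° C); absorbance read at 450 nm after H2SO4 stop.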
For orientation: ELISA stands for enzyme-linked immunosorbent assay.
With `COc1cc(-c2cccc(-c3cccc(NC(=O)c4c[nH]c(=O)n(C)c4=O)c3C)c2C)cc(F)c1CN(C)CCO` [Example 1.220], the half-maximal inhibitory concentration (IC50) is less than 10 nM. On the same count and under the same terms, the figure for `COc1cc(-c2cccc(-c3cccc(Nc4nccc5nccnc45)c3C)c2C)cc(F)c1CNC[C@@H](C)O` [Example 1.208] is less than 10 nM.

`COc1cc(-c2cccc(-c3cccc(Nc4nccc5nccnc45)c3C)c2C)cc(F)c1CN1CC(C(=O)O)C1` [Example 1.273] returned an IC50 of less than 10 nM.

Compound `COc1cc(-c2cccc(-c3cccc(NC(=O)c4cncn(C)c4=O)c3C)c2C)cc(F)c1CNCCO` [Example 1.221] had an IC50 of less than 10 nM. `COc1cc(-c2cccc(-c3cccc(NC(=O)c4c[nH]c(=O)n(C)c4=O)c3C)c2C)cc(F)c1CN[C@@H]1CCC[C@@H]1O` [Example 1.218]: the IC50 was less than 10 nM. The compound `COc1cc(-c2cccc(-c3cccc(NC(=O)c4c[nH]c(=O)n(C)c4=O)c3C)c2C)cc(F)c1CN(C)CCC(=O)O` [Example 1.247] displayed an IC50 of 10 to 1000 nM. Still for that read-out and setting: for `COc1cc(-c2cccc(-c3cccc(NC(=O)c4cncn(C)c4=O)c3C)c2C)cc(F)c1CNCCC(=O)O` [Example 1.266] the value was less than 10 nM; for `COc1cc(-c2cccc(-c3cccc(Nc4cc5c(cn4)C(=O)NCC5)c3C)c2C)cc(F)c1CN1CC(C(=O)O)C1` [Example 1.264], 10 to 1000 nM. Same read-out and setting: for `COc1cc(-c2cccc(-c3cccc(NC(=O)c4cccc(N)n4)c3C)c2C)cc(F)c1CN` [Example 1.386] the value was 10 to 1000 nM; for `COc1cc(-c2cccc(-c3cccc(NC(=O)c4ccncn4)c3C)c2C)cc(F)c1CNCCO` [Example 1.338], less than 10 nM; for `COc1cc(-c2cccc(-c3cccc(NC(=O)c4c[nH]c(=O)n(C)c4=O)c3C)c2C)cc(F)c1CN(C)C` [Example 1.241], less than 10 nM. The same measure, in the same setting: for `COc1cc(-c2cccc(-c3cccc(NC(=O)C4CCCO4)c3C)c2C)cc(F)c1CN[C@@](C)(CO)C(=O)O` (some centres unmarked) [Example 1.336] the value was 1000 to 10000 nM. Consider `COc1cc(-c2cccc(-c3cccc(NC(=O)c4ccc(C(=O)N(C)C)cn4)c3C)c2C)cc(F)c1CN` [Example 1.306], for which the 50% inhibitory concentration (IC50) was less than 10 nM.

Regarding `COc1cc(-c2cccc(-c3cccc(NC(=O)c4ncc(C(N)=O)cn4)c3C)c2C)cc(F)c1CN` [Example 1.299], the IC50 was less than 10 nM. Same read-out and setting: for `COc1cc(-c2cccc(-c3cccc(Nc4cccc5cccnc45)c3C)c2C)cc(F)c1CN1CC(C(=O)O)C1` [Example 1.256] the value was 10 to 1000 nM; for `COc1cc(-c2cccc(-c3cccc(NC(=O)c4c[nH]c(=O)n(C)c4=O)c3C)c2C)cc(F)c1CN[C@H]1CCC(=O)NC1` [Example 1.230], less than 10 nM. Still for that read-out and setting: the figure for `COc1cc(-c2cccc(-c3cccc(NC(=O)c4cccn(CC(N)=O)c4=O)c3C)c2C)cc(F)c1CN` [Example 1.288] is 10 to 1000 nM; for `COc1cc(-c2cccc(-c3cccc(NC(=O)c4c[nH]c(=O)n(C)c4=O)c3C)c2C)cc(F)c1CN[C@@H]1CCCC[C@@H]1O` [Example 1.217] it is less than 10 nM. On the same count and under the same terms, the figure for `COc1cc(-c2cccc(-c3cccc(NC(=O)c4c[nH]c(=O)n(C)c4=O)c3C)c2C)cc(F)c1CNC[C@@H](C)O` [Example 1.222] is less than 10 nM; for `COc1cc(-c2cccc(-c3cccc(NC(=O)C4CCN(CCO)CC4)c3C)c2C)cc(F)c1CNCCO` [Example 1.395] it is 10 to 1000 nM. In the case of `COc1cc(-c2cccc(-c3cccc(NC(=O)c4ccc(C(=O)NCCO)cn4)c3C)c2C)cc(F)c1CN1CC(C(=O)O)C1` [Example 1.285], the IC50 is less than 10 nM. Still for that read-out and setting: for `COc1cc(-c2cccc(-c3cccc(NC(=O)c4cncn(C)c4=O)c3C)c2C)cc(F)c1CN[C@@H]1CCC[C@@H]1O` [Example 1.199] the value was less than 10 nM. `COc1cc(-c2cccc(-c3cccc(NC(=O)c4cnc(CC(N)=O)cn4)c3C)c2C)cc(F)c1CN` [Example 1.307]: the 50% inhibitory concentration (IC50) was less than 10 nM.

The test is the same for the next values; noted with them: human PD-1/PD-L1 ELISA, plates coated with human PD-L1.
`COc1cc(-c2cccc(-c3cccc(NC(=O)c4c[nH]c(=O)n(C)c4=O)c3C)c2C)cc(F)c1CN[C@@H]1CCOC[C@@H]1O` [Example 1.111] showed an IC50 of less than 10 nM. In turn, `COc1cc(-c2cccc(-c3cccc(NC(=O)c4cncn(C)c4=O)c3C)c2C)cc(F)c1CNC[C@@H]1CCC(=O)N1C` [Example 1.195] came in with an IC50 of less than 10 nM. The compound `COc1cc(-c2cccc(-c3cccc(NC(=O)c4cncn(C)c4=O)c3C)c2C)cc(F)c1CN(C)C[C@@H]1CCC(=O)N1C` [Example 1.189] had an IC50 of 10 to 1000 nM. Same read-out and setting: for `COc1cc(-c2cccc(-c3cccc(NC(=O)c4cn(C)c(=O)n(C)c4=O)c3Cl)c2C)cc(F)c1CN[C@@H]1CNC(=O)C1` [Example 1.047] the value was less than 10 nM; for `COc1cc(-c2cccc(-c3cccc(NC(=O)c4cn(C)c(=O)n(C)c4=O)c3C)c2C)cc(F)c1CNCC1CCCNC1=O` (centres unmarked) [Example 1.095], less than 10 nM; for `COc1cc(-c2cccc(-c3cccc(NC(=O)c4cn(C)c(=O)n(C)c4=O)c3C)c2C)cc(F)c1CNCCC1CNC(=O)C1` (centres unmarked) [Example 1.082], less than 10 nM. The same measure, in the same setting: for `COc1cc(-c2cccc(-c3cccc(NC(=O)c4cncn(C)c4=O)c3C)c2C)cc(F)c1CNC[C@H]1CCC(=O)N1` [Example 1.186] the value was less than 10 nM; for `COc1cc(-c2cccc(-c3cccc(NC(=O)c4cn(C)c(=O)n(C)c4=O)c3C)c2C)cc(F)c1CNCC(C)(C)C(N)=O` [Example 1.080], less than 10 nM. `COc1cc(-c2cccc(-c3cccc(NC(=O)c4ccc(CNCCO)cn4)c3C)c2C)cc(F)c1CNCCS(=O)(=O)O` [Example 1.399] displayed an IC50 of less than 10 nM. The same measure, in the same setting: for `COc1cc(-c2cccc(-c3cccc(NC(=O)c4cncn(C)c4=O)c3C)c2C)cc(F)c1CNC1CCOCC1` [Example 1.087] the value was less than 10 nM; for `COc1cc(-c2cccc(-c3cccc(NC(=O)c4c[nH]c(=O)n(C)c4=O)c3C)c2C)cc(F)c1CNC[C@H]1CCC(=O)N1` [Example 1.158], less than 10 nM. Still for that read-out and setting: for `COc1cc(-c2cccc(-c3cccc(NC(=O)c4cccn(C)c4=O)c3C)c2C)cc(F)c1CNC[C@@H]1CCC(=O)N1` [Example 1.157] the value was less than 10 nM; for `COc1cc(-c2cccc(-c3cccc(NC(=O)c4c[nH]c(=O)n(C)c4=O)c3C)c2C)cc(F)c1CN[C@@H]1CCNC1=O` [Example 1.138], 10 to 1000 nM; for `COc1cc(-c2cccc(-c3cccc(NC(=O)c4c[nH]c(=O)n(C)c4=O)c3C)c2C)cc(F)c1CNC1CCOCC1` [Example 1.053], less than 10 nM.

`COc1cc(-c2cccc(-c3cccc(NC(=O)c4nn(C)c(=O)n(C)c4=O)c3C)c2C)cc(F)c1CNCCCC(N)=O` [Example 1.062] registered an IC50 of less than 10 nM. `COc1cc(-c2cccc(-c3cccc(NC(=O)c4nn(C)c(=O)n(C)c4=O)c3C)c2C)cc(F)c1CN[C@H]1CNC(=O)C1` [Example 1.070] displayed an IC50 of less than 10 nM.

Consider `COc1cc(-c2cccc(-c3cccc(NC(=O)c4cncn(C)c4=O)c3C)c2C)cc(F)c1CN[C@H]1CNC(=O)C1` [Example 1.154], for which the IC50 is less than 10 nM. `COc1cc(-c2cccc(-c3cccc(NC(=O)c4c[nH]c(=O)n(C)c4=O)c3C)c2C)cc(F)c1CN(C)[C@@H]1CNC(=O)C1` [Example 1.073] registered an IC50 of 10 to 1000 nM.

Consider `COc1cc(-c2cccc(-c3cccc(NC(=O)c4cn(C)c(=O)n(C)c4=O)c3C)c2C)cc(F)c1CNCCO` [Example 1.179], for which the IC50 is less than 10 nM. For `COc1cc(-c2cccc(-c3cccc(NC(=O)c4cccn(C)c4=O)c3C)c2C)cc(F)c1CNCc1c[nH]c(=O)[nH]c1=O` [Example 1.097], the IC50 was less than 10 nM. Same read-out and setting: the figure for `COc1cc(-c2cccc(-c3cccc(Nc4cncc5nccnc45)c3C)c2C)cc(F)c1CNC[C@@H]1CCC(=O)N1` [Example 1.048] is less than 10 nM.

Staying with this test, now noted: plate-coated human PD-L1, biotinylated Human PD-1, absorbance at 450 nm.
Consider `COc1cc(-c2cccc(-c3cccc(Nc4nccc5nccnc45)c3C)c2Cl)cc(F)c1CN[C@H]1CCOC[C@H]1O` [Example 2.114], for which the 50% inhibitory concentration (IC50) was less than 10 nM. Same read-out and setting: for `COc1cc(-c2cccc(-c3cccc(NC(=O)c4cn(C)c(=O)n(C)c4=O)c3Cl)c2Cl)cc(F)c1CN[C@@H]1COC[C@@H]1O` [Example 2.073] the value was less than 10 nM; for `COc1cc(-c2cccc(-c3cccc(NC(=O)c4cn(C)c(=O)n(C)c4=O)c3Cl)c2Cl)cc(F)c1CN[C@H]1CNC(=O)C1` [Example 2.081], less than 10 nM; for `COc1cc(-c2cccc(-c3cccc(NC(=O)c4c[nH]c(=O)n(C)c4=O)c3Cl)c2Cl)cc(F)c1CN[C@H]1CCC(=O)NC1` [Example 2.027], less than 10 nM. `COc1cc(-c2cccc(-c3cccc(NC(=O)c4cn(C)c(=O)n(C)c4=O)c3Cl)c2Cl)cc(F)c1CN1CCC[C@@H](C(=O)O)C1` [Example 2.003] had a half-maximal inhibitory concentration (IC50) of less than 10 nM. On the same count and under the same terms, for `COc1cc(-c2cccc(-c3cccc(NC(=O)c4cn(C)c(=O)n(C)c4=O)c3Cl)c2Cl)cc(F)c1CN1CC[C@@H](C(=O)O)C1` [Example 2.010] the value was less than 10 nM; for `COc1cc(-c2cccc(-c3cccc(NC(=O)c4cn(C)c(=O)n(C)c4=O)c3F)c2Cl)cc(F)c1CN[C@@H]1CCOC[C@@H]1O` [Example 2.106], less than 10 nM; for `COc1cc(-c2cccc(-c3cccc(Nc4nccc5nccnc45)c3C)c2Cl)cc(F)c1CN[C@H]1CCC(=O)NC1` [Example 2.116], less than 10 nM. In turn, `COc1cc(-c2cccc(-c3cccc(NC(=O)c4cn(C)c(=O)n(C)c4=O)c3C)c2Cl)cc(F)c1CN(C)C1CCOCC1` [Example 2.069] yielded an IC50 of less than 10 nM. Still for that read-out and setting: for `COc1cc(-c2cccc(-c3cccc(Nc4nccc5nccnc45)c3C)c2Cl)cc(F)c1CNCC(C)(C)C(N)=O` [Example 2.113] the value was less than 10 nM. Consider `COc1cc(-c2cccc(-c3cccc(NC(=O)c4cn(C)c(=O)n(C)c4=O)c3C)c2Cl)cc(F)c1CN[C@H]1COC[C@H]1O` [Example 2.093], for which the IC50 is less than 10 nM. Same read-out and setting: the figure for `COc1cc(-c2cccc(-c3cccc(NC(=O)c4cn(C)c(=O)n(C)c4=O)c3C)c2Cl)cc(F)c1CNC(C)(C)CO` [Example 2.057] is less than 10 nM.
